Experimental data taken from PMC3968691 (The FEBS journal, 2013).

Molecular target: Sts-1PGM (suppressor of T-cell receptor signaling-1 PGM domain) (Mus musculus, UniProt Q8BGG7, E490Q/H380C)
Assay: biochemical

Sequence of Sts-1PGM (suppressor of T-cell receptor signaling-1 PGM domain) (Q8BGG7 369-638 H380C/E490Q): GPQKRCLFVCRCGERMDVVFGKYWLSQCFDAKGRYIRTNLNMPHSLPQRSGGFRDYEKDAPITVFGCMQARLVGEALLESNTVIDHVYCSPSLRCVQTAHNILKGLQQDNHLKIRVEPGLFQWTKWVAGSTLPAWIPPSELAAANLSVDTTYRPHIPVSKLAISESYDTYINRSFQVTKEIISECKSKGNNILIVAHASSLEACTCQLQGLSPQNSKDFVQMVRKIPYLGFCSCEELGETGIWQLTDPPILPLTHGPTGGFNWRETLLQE

Question: How did the Kd turn out when `COc1ccc2c(c1)Oc1cc(OP(=O)(O)O)ccc1C21OC(=O)c2ccccc21` (stereo not shown) [OMFP] was run?
Answer: Its Kd is 5.71 µM.
